Results: US11814364B2, “Pyridine N-oxide derivatives useful as factor XIa inhibitors” (Janssen Pharmaceutica NV, priority 2021, dated 2023)

Target: human plasma kallikrein (Homo sapiens, UniProt P03952)
Test: Kallikrein inhibition FLINT assay with quenched AMC peptide substrate Z-Gly-Pro-Arg-AMC (end point EP or kinetic KIN reads)
Assay type: biochemical
Conditions: kinetic reads at 5 min intervals over 30 min; read-out: Kallikrein (KIN) IC50
Procedure, shortened: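 Enzyme and compound were preincubated 30 min before adding 50 μM AMC substrate in pH 7.5 Tris/NaCl/CaCl2/BSA/CHAPS buffer. AMC release was read at 30 min endpoint or every 5 min.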

human plasma kallikrein, sequence (P03952 391-638 limits assumed): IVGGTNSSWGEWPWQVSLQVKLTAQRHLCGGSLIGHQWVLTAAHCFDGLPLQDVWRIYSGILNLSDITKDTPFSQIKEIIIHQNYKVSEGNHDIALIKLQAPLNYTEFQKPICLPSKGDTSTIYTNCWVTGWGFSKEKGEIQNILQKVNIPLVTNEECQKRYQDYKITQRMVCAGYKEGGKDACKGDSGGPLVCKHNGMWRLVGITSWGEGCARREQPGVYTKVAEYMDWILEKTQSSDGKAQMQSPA
human plasma kallikrein, sequence (P03952 20-390 partner limits assumed): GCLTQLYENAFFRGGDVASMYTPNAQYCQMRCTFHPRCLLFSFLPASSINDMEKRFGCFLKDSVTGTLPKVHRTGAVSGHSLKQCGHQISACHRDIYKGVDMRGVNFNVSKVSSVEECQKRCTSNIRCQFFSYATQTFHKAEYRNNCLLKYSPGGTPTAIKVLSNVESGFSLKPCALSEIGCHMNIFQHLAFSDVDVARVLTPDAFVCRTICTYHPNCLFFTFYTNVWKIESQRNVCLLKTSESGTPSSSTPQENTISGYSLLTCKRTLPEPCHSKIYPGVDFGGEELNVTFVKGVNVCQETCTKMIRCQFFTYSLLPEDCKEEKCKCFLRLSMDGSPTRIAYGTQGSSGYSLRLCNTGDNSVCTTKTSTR

Row | SMILES | IC50
1 | CC(C)Oc1cc(C(CC2CC2)n2cc(-c3cnn(C)c(=O)c3)cn2)[n+]([O-])cc1-c1c(-n2cnnn2)ccc(Cl)c1F (stereo not drawn) [Example P146] | 571 nM
2 | [O-][n+]1cc(-c2c(-n3cnnn3)ccc(Cl)c2F)ccc1[C@@H](Cc1ccc(C(F)(F)F)nc1)n1cc(-c2cncn2C(F)F)cn1 [Example P785] | 32.9 nM
3 | [2H]C([2H])([2H])n1nccc1-c1cnn([C@@H](CCOC(F)F)c2ccc(-c3c(-n4cnnn4)ccc(Cl)c3F)c[n+]2[O-])c1 [Example P557] | 210 nM
4 | O=C1CCCN1CC(c1ccc(-c2c(-n3cnnn3)ccc(Cl)c2F)c[n+]1[O-])n1cc(-c2ccncc2)cn1 (stereo not drawn) [Example P242] | 3.9 nM
5 | [O-][n+]1ccc(-c2cnn(C(Cc3ccc(F)cc3)c3ccc(-c4c(C(F)F)ccc(Cl)c4F)c[n+]3[O-])c2)cc1 (single isomer, unassigned) [Example Q18] | 5.1 nM
6 | O=C(O)c1ccc(-c2cnn(C(CC3CC3C(=O)N3CCC(c4ccccc4)C3)c3ccc(-c4c(-n5cnnn5)ccc(Cl)c4F)c[n+]3[O-])c2)cc1 (stereo not drawn) [Example P175] | 365 nM
7 | Cn1cc(C[C@@H](c2ccc(-c3c(-n4cnnn4)ccc(Cl)c3F)c[n+]2[O-])n2cc(-c3ccnc(C(F)(F)F)c3)cn2)nn1 [Example P737] | 818 nM
8 | NC(=O)c1ccc(-c2cnn(C(CN3CCCC3=O)c3ccc(-c4c(-n5cc(C(F)(F)F)nn5)ccc(Cl)c4F)c[n+]3[O-])c2)cc1F (single isomer, unassigned) [Example P936] | 397 nM
9 | Cn1nncc1-c1cnn([C@H](CCOC(F)F)c2ccc(-c3c(-n4cc(C(F)(F)F)nn4)ccc(Cl)c3F)c[n+]2[O-])c1 [Example P761] | 41.6 nM
10 | [O-][n+]1cc(-c2c(-n3cc(Cl)nn3)ccc(Cl)c2F)ccc1C(Cn1cccn1)n1cc(-c2cn(C(F)F)nn2)cn1 (single isomer, unassigned) [Example P664] | 380 nM
11 | [O-][n+]1cc(-c2c(-n3cc(Cl)nn3)ccc(Cl)c2F)ccc1C(Cn1cc(F)cn1)n1cc(-c2ccnc(C(F)(F)F)c2)cn1 (single isomer, unassigned) [Example P480] | 31.2 nM
12 | Nc1ccc(-c2cnn(C(Cn3cccn3)c3ccc(-c4c(-n5cnnn5)ccc(Cl)c4F)c[n+]3[O-])c2)c(F)n1 (single isomer, unassigned) [Example P314] | 1.4 nM
13 | [O-][n+]1cc(-c2c(-n3cnnn3)ccc(Cl)c2F)ccc1[C@@H](CCOC(F)F)n1cc(-c2ccn(C(F)F)n2)cn1 [Example P563] | 25 nM
14 | [O-][n+]1cc(-c2c(-n3cnnn3)ccc(Cl)c2F)ccc1C(CC1CC1)n1cc(-c2ccncn2)cn1 (single isomer, unassigned) [Example P258] | 201 nM
15 | [O-][n+]1cc(-c2c(-n3cnnn3)ccc(Cl)c2F)ccc1C(CC1CC1)n1cc(-c2cnnn2C2CC2)cn1 (stereo not drawn) [Example P524] | 428 nM
16 | [O-][n+]1ccc(-c2cnn(C(Cn3cccn3)c3ccc(-c4c(-n5cnnn5)ccc(Cl)c4F)c[n+]3[O-])c2)cc1C(F)F (single isomer, unassigned) [Example P334] | 29 nM
17 | NC(=O)c1ccc(-c2cnn(C(Cc3ccn(C(F)F)n3)c3ccc(-c4c(C(F)F)ccc(Cl)c4F)c[n+]3[O-])c2)cc1F (single isomer, unassigned) [Example Q66] | 477 nM
18 | O=C1CCC(c2ccc(-c3cnn(C(Cc4ccc(F)cc4)c4ccc(-c5c(-n6cnnn6)ccc(Cl)c5F)c[n+]4[O-])c3)cc2)N1 (stereo not drawn) [Example P121] | 11.3 nM
19 | N#Cc1cc(-c2cnn(C(Cn3cc(F)cn3)c3ccc(-c4c(-n5cnnn5)ccc(Cl)c4F)c[n+]3[O-])c2)ccn1 (single isomer, unassigned) [Example P453] | 132 nM
20 | O=C(O)c1ccc(-c2cnn(C(CC(=O)N3CCNCC3)c3ccc(-c4cc(Cl)ccc4-n4cnnn4)c[n+]3[O-])c2)cc1 (stereo not drawn) [Example P90] | 80 nM
21 | O=C(O)c1ccc(-c2cnn(C(CC(=O)N3CCCC3)c3ccc(-c4c(-n5cc(C(F)(F)F)nn5)ccc(Cl)c4F)c[n+]3[O-])c2)cc1F (stereo not drawn) [Example P901] | 287 nM
22 | [2H]C([2H])([2H])OC([2H])([2H])CC(c1ccc(-c2c(-n3cc(C(F)(F)F)nn3)ccc(Cl)c2F)c[n+]1[O-])n1cc(-c2ncnn2C)cn1 (single isomer, unassigned) [Example P864] | 549 nM
23 | [O-][n+]1cc(-c2c(-n3cnnn3)ccc(Cl)c2F)ccc1C(CC1CC1)n1cc(-c2ccncc2)cn1 (stereo not drawn) [Example P187] | 124 nM
24 | COC(=O)Nc1ccc(-c2cnn(C(CC3CCCCC3)c3ccc(-c4c(-n5cnnn5)ccc(Cl)c4F)c[n+]3[O-])c2)cc1 (stereo not drawn) [Example P102] | 72.2 nM
25 | [O-][n+]1cc(-c2c(-n3cnnn3)ccc(Cl)c2F)ccc1C(CC1CC1)n1cc(-c2cnco2)cn1 (stereo not drawn) [Example P497] | 169 nM
26 | [O-][n+]1cc(-c2c(-n3cnnn3)ccc(Cl)c2F)ccc1C(Cn1cc(F)c(COC(F)F)n1)n1cc(-c2ccnc(C(F)(F)F)c2)cn1 (single isomer, unassigned) [Example P570] | 7.2 nM
27 | O=C(O)c1ccc(-c2cnn(C(CCOC(F)F)c3ccc(-c4c(-n5cc(Cl)nn5)ccc(Cl)c4F)c[n+]3[O-])c2)cc1F (single isomer, unassigned) [Example P881] | 7.3 nM

Row | SMILES | IC50
28 | NC(=O)c1ccn(CC(c2ccc(-c3c(-n4cnnn4)ccc(Cl)c3F)c[n+]2[O-])n2cc(-c3ccnc(C(F)(F)F)c3)cn2)n1 (single isomer, unassigned) [Example P448] | 9.4 nM
29 | [O-][n+]1cc(-c2c(-n3cnnn3)ccc(Cl)c2F)ccc1C(CC1CC1)n1cc(-c2scnc2C2CC2)cn1 (stereo not drawn) [Example P535] | 220 nM
30 | CC1CC1CC(c1ccc(-c2c(-n3cnnn3)ccc(Cl)c2F)c[n+]1[O-])n1cc(-c2ccc(C(=O)O)cc2)cn1 (stereo not drawn) [Example P227] | 11.9 nM
31 | [O-][n+]1cc(-c2c(C(F)F)ccc(Cl)c2F)ccc1C(Cn1cc(F)cn1)n1cc(-c2ccnc(C(F)(F)F)c2)cn1 (single isomer, unassigned) [Example Q22] | 806 nM
32 | [2H]C([2H])([2H])C([2H])([2H])CC(c1ccc(-c2c(-n3cc(Cl)nn3)ccc(Cl)c2F)c[n+]1[O-])n1cc(-c2ccc(C(N)=O)c(F)c2)cn1 (stereo not drawn) [Example P926] | 19.2 nM
33 | COCC[C@H](c1ccc(-c2c(-n3cnnn3)ccc(Cl)c2F)c[n+]1[O-])n1cc(-c2c(Cl)cnn2C(F)F)cn1 [Example P623] | 217 nM
34 | [O-][n+]1cc(-c2c(-n3cnnn3)ccc(Cl)c2F)ccc1[C@@H](Cc1ccc(F)cc1)n1cc(-c2cn(C(F)F)nn2)cn1 [Example P600] | 43.8 nM
35 | [O-][n+]1cc(-c2c(-n3cc(Cl)nn3)ccc(Cl)c2F)ccc1[C@@H](CCOC(F)F)n1cc(-c2cnn(C(F)F)n2)cn1 [Example P666] | 212 nM
36 | N#Cc1cc(-c2cnn(C(Cn3ccccc3=O)c3ccc(-c4c(-n5cnnn5)ccc(Cl)c4F)c[n+]3[O-])c2)ccn1 (stereo not drawn) [Example P459] | 105 nM
37 | [O-][n+]1cc(-c2c(-n3cc(Cl)nn3)ccc(Cl)c2F)ccc1[C@@H](Cn1cc(F)cn1)n1cc(-c2c(F)cnn2C(F)F)cn1 [Example P631] | 66.2 nM
38 | [O-][n+]1cc(F)c(-c2cnn(C(CC3CC3)c3ccc(-c4c(-n5cnnn5)ccc(Cl)c4F)c[n+]3[O-])c2)c(Cl)c1 (stereo not drawn) [Example P518] | 383 nM
39 | [2H]C([2H])([2H])n1nccc1-c1cnn([C@H](CCOC(F)F)c2ccc(-c3c(-n4cnnn4)ccc(Cl)c3F)c[n+]2[O-])c1 [Example P556] | 2.4 nM
40 | COc1cc(C(Cc2ccn(C(F)F)n2)n2cc(-c3ccc(C(N)=O)c(F)c3)cn2)[n+]([O-])cc1-c1cc(Cl)ccc1C(C)=O (single isomer, unassigned) [Example Q78] | 510 nM
41 | CN(CC(c1ccc(-c2c(-n3cnnn3)ccc(Cl)c2F)c[n+]1[O-])n1cc(-c2ccnc(F)c2)cn1)C(=O)C(C)(C)C (stereo not drawn) [Example P426] | 53.6 nM
42 | COC(=O)Nc1ccc(-c2cnn(C(CC(C)C)c3ccc(-c4c(-n5cnnn5)ccc(Cl)c4F)c[n+]3[O-])c2)cc1 (single isomer, unassigned) [Example P181] | 67.7 nM
43 | [O-][n+]1ccc(-c2cnn(C(Cc3ccc(F)cc3)c3ccc(-c4c(OC(F)F)ccc(Cl)c4F)c[n+]3[O-])c2)cc1 (single isomer, unassigned) [Example Q19] | 48.4 nM
44 | [O-][n+]1cc(-c2c(-n3cc(Cl)nn3)ccc(Cl)c2F)ccc1[C@@H](CCOC(F)F)n1cc(-c2cn(C(F)F)nn2)cn1 [Example P679] | 353 nM
45 | Cn1cc(-c2cnn([C@H](CCOC(F)F)c3ccc(-c4c(-n5cc(C(F)(F)F)nn5)ccc(Cl)c4F)c[n+]3[O-])c2)nn1 [Example P760] | 454 nM
46 | [O-][n+]1cc(-c2c(-n3cnnn3)ccc(Cl)c2F)ccc1C(Cn1ccc(-c2ccccc2)n1)n1cc(-c2ccncc2)cn1 (stereo not drawn) [Example P270] | 268 nM
47 | NC(=O)c1ccc(-c2cnn(C(CN3CCCC3=O)c3ccc(-c4c(-n5cc(C(F)(F)F)nn5)ccc(Cl)c4F)c[n+]3[O-])c2)cc1F (single isomer, unassigned) [Example P937] | 2.7 nM
48 | [O-][n+]1cc(-c2cc(Cl)ccc2-n2cnnn2)ccc1C(Cc1ccc(Cl)cc1)n1cc(-c2ccncc2)cn1 (stereo not drawn) [Example P171] | 15.3 nM
49 | [O-][n+]1cc(-c2c(-n3cnnn3)ccc(Cl)c2F)ccc1C(C(O)c1ccccc1)n1cc(-c2ccnn2C(F)F)cn1 (single isomer, unassigned) [Example P716] | 22.1 nM
50 | N#Cc1cc(-c2cnn(C(CCOC(F)F)c3ccc(-c4c(-n5cnnn5)ccc(Cl)c4F)c[n+]3[O-])c2)ccn1 (stereo not drawn) [Example P458] | 19 nM
51 | [O-][n+]1cc(-c2c(-n3cc(Cl)nn3)ccc(Cl)c2F)ccc1[C@H](Cn1cc(F)cn1)n1cc(-c2c(F)cnn2C(F)F)cn1 [Example P634] | 739 nM
52 | Cn1ncc(F)c1-c1cnn([C@H](CCOC(F)F)c2ccc(-c3c(-n4cc(Cl)nn4)ccc(Cl)c3F)c[n+]2[O-])c1 [Example P680] | 29 nM
53 | Cc1cc(-c2cnn(C(Cn3cccn3)c3ccc(-c4c(-n5cnnn5)ccc(Cl)c4F)c[n+]3[O-])c2)ccn1 (stereo not drawn) [Example P285] | 16.2 nM
54 | COc1cc(C(CC2CC2)n2cc(-c3sc(C(N)=O)cc3C)cn2)[n+]([O-])cc1-c1cc(Cl)ccc1-n1cc(C(F)(F)F)nn1 (single isomer, unassigned) [Example P958] | 13.1 nM
